Reference: patent US20150376225A1, “NOVEL COMPOUNDS OF 11BETA-HYDROXY-STEROIDS FOR USE IN MITOCHONDRIA BIOGENESIS AND DISEASES ASSOCIATED WITH MITOCHONDRIAL DYSFUNCTION OR DEPLETION” (SPHAERA PHARMA PVTD. LTD., priority 2013, published 2015)

test system: BCAEC; experiment: 3-(4,5-Dimethylthiazol-2-yl)-2,5-diphenyltetrazolium bromide (MTT) assay, mitochondrial function (MTT/Methylene Blue ratio); type: cell-based, bovine; details: treated for 48 hours
Method: 3-(4,5-Dimethylthiazol-2-yl)-2,5-diphenyltetrazolium bromide (MTT) assay
6,000 BCAEC were seeded into clear 96-well flat bottom plates at 100 μl per well. After starvation, cells were treated for 48 hours with the corresponding compounds. Compounds were changed every 12 and 24 hours (with 100 μl per well of fresh medium). Following the treatment medium was aspirated from plates, and washed once with 100 μl HBSS, subsequently 100 μl per well 0.5 mg/ml MTT in phenol red-free DMEM was added. Plates were incubated for 1 hour at 37° C., and this was followed by aspiration of MTT solution, addition of 100 μl per well DMSO to dissolve formazan crystals, and incubation at 37° C. for 15 minutes. Mitochondrial function was quantified by absorbance was measured at 540 nm with background substraction at 670 nm using. After MTT absorbance measure, media was removed and cells quantify in each well as described elsewhere (Oliver et al, 1989) with some modifications. In brief, 100 μl of 10% formol saline to each well was added, and incubated at 4° C. for 24 hours. Next, formol solution was removed from the wells and 100 μl of filtered 0.1% (w/v) Methylene Blue in 0.01 M borate buffer (pH 8.5) was added to each well. After 30 minutes, excess dye was removed and washed off 3 times with 0.01 M borate buffer (pH 8.5). […] The plates were then gently shaken and incubated for 15 minutes under a bench rocker. Absorbance was measured at 650 nm. The MTT/Methylene Blue ratio was used to quantify the mitochondrial function. Oliver M H, Harrison N K, Bishop J E, Cole P J, Lauren G J. A rapid and convenient assay for counting cells cultured in microwell plates: application for assessment of growth factors. J Cell Sci. 1989, 3:513-8.

Row | SMILES | MTT Assay
1 | CC(O)[C@H]1CC[C@H]2[C@@H]3CC=C4C[C@@H](O)CC[C@]4(C)[C@H]3[C@@H](O)C[C@]12C (stereo partly drawn) [Compound 1003, (3S,8S,9S,10R,11S,13S,14S,17S)-17-(1-hydroxyethyl)-10,13-dimethyl-2,3,4,7,8,9,10,11,12,13,14,15,16,17-tetradecahydro-1H-cyclopenta[a]phenanthrene-3,11-diol] | + (+ indicates >110%)
2 | CC(=O)[C@H]1CC[C@H]2[C@@H]3CCC4=CC(=O)CC[C@]4(C)[C@H]3[C@@H](O)C[C@]12C [Compound 1007, (8S,9S,10R,11S,13S,14S,17S)-17-acetyl-11-hydroxy-10,13-dimethyl-6,7,8,9,10,11,12,13,14,15,16,17-dodecahydro-1H-cyclopenta[a]phenanthren-3(2H)-one] | + (+ indicates >110%)
3 | CC1([C@H]2CC[C@H]3[C@@H]4CC=C5C[C@@H](O)CC[C@]5(C)[C@H]4[C@@H](O)C[C@]23C)OCCO1 [Compound 1001, (3S,8S,9S,10R,11S,13S,14S,17S)-10,13-dimethyl-17-(2-methyl-1,3-dioxolan-2-yl)-2,3,4,7,8,9,10,11,12,13,14,15,16,17-tetradecahydro-1H-cyclopenta[a]phenanthrene-3,11-diol] | + (+ indicates >110%)

test system: AMPK; experiment: AMPK activation, cell based ELISA in Hep G2 cells; details: 1 h incubation, DMSO control as 100%
Method: AMPK Activation Protocol:
AMPK activation potential of the compounds was evaluated using cell based ELISA.
Hepatoma (Hep G2) liver cells were maintained in a T 75 culture flask-containing 25 mM DMEM+10% fetal calf serum. The cells were maintained in a T 75 culture flask-containing medium (DMEM+10% fetal calf serum). On reaching a confluence of 70 to 80%, the cells were seeded in a 96 well plate at a density of 40,000 cells per well in 25 mM DMEM+10% FCS medium. The plates were then incubated at 37° C. with 5% CO2 for 24 hours. Various concentrations of drugs were prepared in DMSO and diluted to required concentration with the medium and incubated at 37° C. with 5% CO2 for 30 min and 1 h for Epicatechin analogs and 11-BHP analogs respectively. Metformin was used as positive control. Cells were fixed with 4% formaldehyde for 30 minutes at room temperature and washed three times with PBS containing 0.1% Triton X-100. Endogenous peroxidase was quenched with 1% H2O2 in PBS-T (0.1% Tween 20) for 30 minutes and washed three times in PBS-T. Cells were blocked with 1% BSA in PBS-T for 1 hour.

Row | SMILES | % activation pAMPK at 1 nM [%]
4 | C[C@]12CCC(=O)CC1CCC1C2[C@@H](O)C[C@]2(C)C(=O)CCC12 (stereo partly drawn) [Compound 1034, (10S,11S,13S)-11-hydroxy-10,13-dimethyltetradecahydro-3H-cyclopenta[a]phenanthrene-3,17(2H)-dione] | 104
5 | C[C@]12CCC(=O)C=C1CCC1C2[C@@H](O)C[C@@]2(C)C1CC[C@@]21OCC1=O (stereo partly drawn) [Compound 1028, (10R,11S,13S,17R)-11-hydroxy-10,13-dimethyl-1,6,7,8,9,10,11,12,13,14,15,16-dodecahydrospiro[cyclopenta[a]phenanthrene-17,2′-oxetane]-3,3′(2H)-dione] | 103

test system: oxidative phosphorylation complex I; experiment: Slot blot method, complex I normalized to GAPDH; type: cell-based, bovine; details: not given
Method: Following treatment, bovine aortic endothelial cells grown in 12 well plates are scrapped in 50 μl of lysis buffer (1% Triton X-100, 20 mm Tris, 140 mm NaCl, 2 mm EDTA, and 0.1% SDS) with protease and phosphatase inhibitor cocktails (P2714 and P2850, Sigma-Aldrich) supplemented with 0.15 mm PMSF, 5 mm Na3VO4 and 3 mm NaF. Homogenates are passed through an insulin syringe five times, sonicated for 30 min at 4° C. and centrifuged (12,000 g) for 10 min. The total protein content is measured in the supernatant using the Bradford method. A total of 10-20 μg of protein are loaded into a pre-assembled slot blot apparatus to be transferred under vacuum onto polyvinyl membranes, incubated for 1 h in blocking solution (5% non-fat dry milk in TBS plus 0.1% Tween 20 (TBS-T)), followed by a overnight incubation at 4° C. with primary antibodies (oxidative phosphorylation complex I or GAPDH). Primary antibodies are diluted in TBS-T plus 5% non-fat dry milk. Membranes are washed (3× for 5 min) in TBS-T and incubated 1 h at room temperature in the presence of HRP-conjugated secondary antibodies diluted in blocking solution. Membranes are again washed 3 times in TBS-T, and the immunoblots developed using an ECL Plus detection kit (Amersham-GE). Band intensities are digitally quantified using ImageJ software (http://www.nih.gov). Complex I values are normalized for loading differences using GAPDH after stripping and reprobing of the membrane. All Western blot images to be obtained will be within the linear range of X-ray film to ensure computer-assisted densitometry accuracy.

Row | SMILES | Slot Blot Assay
6 | Cc1noc([C@H]2CC[C@H]3[C@@H]4CCC5=CC(=O)CC[C@]5(C)[C@H]4[C@@H](O)C[C@]23C)n1 [Compound 1012, (8S,9S,10R,11S,13S,14S,17S)-11-hydroxy-10,13-dimethyl-17-(3-methyl-1,2,4-oxadiazol-5-yl)-6,7,8,9,10,11,12,13,14,15,16,17-dodecahydro-1H-cyclopenta[a]phenanthren-3(2H)-one] | + (+ indicates >150% HCAEC)
7 | CC(=O)[C@H]1CC[C@H]2[C@@H]3CC=C4C[C@@H](O)CC[C@]4(C)[C@H]3[C@@H](O)C[C@]12C [Compound 1002, 1-((3S,8S,9S,10R,11S,13S,14S,17S)-3,11-dihydroxy-10,13-dimethyl-2,3,4,7,8,9,10,11,12,13,14,15,16,17-tetradecahydro-1H-cyclopenta[a]phenanthren-17-yl)ethanone] | + (+ indicates >150% HCAEC)
8 | CC[C@H]1CC[C@H]2[C@@H]3CC=C4C[C@@H](O)CC[C@]4(C)[C@H]3[C@@H](O)C[C@]12C [Compound 1009, (3S,8S,9S,10R,11S,13R,14S,17S)-17-ethyl-10,13-dimethyl-2,3,4,7,8,9,10,11,12,13,14,15,16,17-tetradecahydro-1H-cyclopenta[a]phenanthrene-3,11-diol] | + (+ indicates >150% HCAEC)
9 | COC(=O)[C@H]1CC[C@H]2[C@@H]3CC=C4C[C@@H](O)CC[C@]4(C)[C@H]3[C@@H](O)C[C@]12C [Compound 1004, (3S,8S,9S,10R,11S,13S,14S,17S)-methyl 3,11-dihydroxy-10,13-dimethyl-2,3,4,7,8,9,10,11,12,13,14,15,16,17-tetradecahydro-1H-cyclopenta[a]phenanthrene-17-carboxylate] | + (+ indicates >150% HCAEC)
